Patent publication US20260248820A1, “USES OF HYDROGENATED CANNABIDIOL (H4CBD) AND ADVANCED METABOLIC SYNDROME” (The Regents of the University of California, priority 2022, published 2026)
Entries after “also recorded” stand apart in the source; their conditions may differ.

Tests used:
AT1 mRNA = assay: Real-time qPCR on cardiac tissue, AT1; type: in vivo, rat
Description: (§1) Real-Time qPCR—Gene expression was quantified by qPCR on cardiac tissue. Primers used were acquired from Integrated DNA Technologies and listed here 5′-3′: angiotensin MAS1 receptor (Mas1) Fw: […] (SEQ ID NO:1), Rv: […] (SEQ ID NO:2).

[1] = test system: Otsuka Long-Evans Tokushima Fatty (OLETF) rat; assay: Oral Glucose Tolerance Test (OGTT); type: in vivo
Procedure: (§2) Male lean Long Evan's Tokushima Otsuka (LETO) rats and obese Otsuka Long Evans Tokushima Fatty (OLETF) rats (Japan SLC Inc., Hamamatsu, Japan), both 14 weeks of age were assigned to the following groups (n=8/group): (1) vehicle-dosed LETO (LETO), (2) vehicle-dosed OLETF (OLETF), and (3) H4CBD-treated (200 mg/kg/day×4 weeks) OLETF (H4CBD). Rats were maintained in a specific pathogen-free, climate-controlled facility on a 12-hour light: dark cycle (07:00-19:00 and 19:00-07:00, respectively). All animals had free access to water and were fed rat chow (Teklad Global; fat 9.0%; carbohydrate 44.9%; protein 19.0%) ad libitum. Treatment intervention was initiated at 41 weeks of age. Phenotypic data (i.e. body mass, food intake) was collected daily for all animals.
(§3) Purified H4CBD (>99%) was suspended in food grade sesame oil and administered by oral gavage at a dose of 200 mg/kg.
Oral Glucose Tolerance Test (OGTT)—At approximately 45 weeks of age and following an overnight fast, oGTTs were performed as previously described. The positive incremental areas under the curve for glucose (AUCglucose) and insulin (AUCinsulin) were calculated by the trapezoidal method. Insulin resistance index (IRI) was calculated by AUCglucosex AUCinsulin/100, as previously described.

lipase activity = assay: Lipase activity assay (adipose, liver, plasma); type: in vivo, rat
Procedure: Lipase Activity Assay—White adipose tissue (WAT) and liver was assayed for lipase activity.

[2] = test system: proteins involved in insulin signaling (soleus); assay: Western blot of soleus insulin signaling proteins; type: in vivo, rat
Description: Western Blot—Soleus was used to measure proteins involved in insulin signaling. Densitometry values were quantified using ImageJ software (NIH) and normalized by correcting for densitometry values of representative protein bands below 37 kDa stained with Ponceau S. Results are reported as expression (%) compared to LETO.

[3] = test system: endocannabinoid receptors; details: cited from earlier work
Collagen Type IV = assay: Liver Type IV collagen deposition (liver damage); type: in vivo, rat; details: collagen 71% higher in OLETF than LETO
Description: Type IV collagen deposition is an indicator of liver fibrosis, which is useful in the diagnosis of NAFLD in elderly individuals and models of NAFLD like OLETF.

[4] = test system: Otsuka Long-Evans Tokushima Fatty (OLETF) rat; assay: Morphometrical measurements (body mass, abdominal fat, food and water intake, activity) in advanced MetS rats; type: in vivo
Description: Animals—The Otsuka Long-Evans Tokushima Fatty (OLETF) rat is a monogenic model of diet-induced obesity accelerated by a mutation in the CCK receptor. […] At >40 weeks of age, OLETF rats suffer from severe metabolic dysfunction and therefore serve as a model of aged, severe MetS.
as §2, §3
Tissue Collection—After the 4-week study and 3 days following the OGTT, animals were fasted overnight and tissues were collected the following morning.
as §2, with “Animals—Male” for “Male”, “facility at the University of California, Merced” for “facility”, “age.” for “age. Phenotypic data (i.e. body mass, food intake) was collected daily for all animals.”
Body Mass (BM), Water, and Food Intake—BM was measured daily to calculate the appropriate drug and vehicle dose. Water, urine and food were measured once every 24 hours throughout the study.
(§4) Telemeter Implantation—At 16 weeks, OLETF rats (n=5) were implanted with DSI telemeters (HD-S10) in the abdominal cavity to measure systolic blood pressure. […] Activity was measured every hour for 15 minutes for the duration of the study. Data were analyzed using A.R.T. software (DSI, St. Paul, MN).
Drug Preparation and Administration—Purified H4CBD (>99%) was suspended in sesame oil and administered by oral gavage at a dose of 200 mg/kg.
Tissue Collection—After the 4-week study period, animals were fasted overnight, and tissues were collected at sacrifice the following morning. BM was recorded before animals were decapitated and trunk blood was collected.

Mas1 mRNA = assay: Real-time qPCR on cardiac tissue, Mas1; type: in vivo, rat; details: 74% lower in OLETF control than LETO
Description: as §1

[5] = test system: Otsuka Long-Evans Tokushima Fatty (OLETF) rat; assay: Systolic blood pressure by DSI radiotelemetry; type: in vivo; details: for Average increase of systolic blood pressure versus non-treated OLETF: after the 7th day of the dose regimen
Procedure: as §4

[6] = OLETF rats, 200 mg/kg oral, 4 weeks, p<0.05
[7] = average between day 10 and day 30
[8] = by day 13 through the end of the study

CCCCCc1cc(O)c(C2CC(C)CCC2C(C)C)c(O)c1 (stereo not shown) [H4CBD, 2-(2-isopropyl-5-methylcyclohexyl)-5-pentylbenzene-1,3-diol]
AT1 mRNA expression higher than control OLETF (AT1 mRNA): 49%
Glucose response curve to OGTT ([1]; % baseline, p<0.01 OLETF vs. H4CBD): lowest
Reduction of insulin resistance index (IRI) ([1]; IRI = AUCglucose x AUCinsulin/100, p<0.05 OLETF vs. H4CBD): 23%
Time of blood glucose peak after glucose bolus ([1]; OGTT at about 45 weeks, overnight fast, treated and non-treated OLETF): 60 min
Reduction of overall AUCglucose from OLETF ([1]; OGTT, p<0.001): 29%
Plasma insulin response to OGTT ([1]; response abolished in OLETF): not rescued
Liver lipase activity (cytosolic, membrane) (lipase activity; LETO, OLETF, H4CBD): not different among groups
Fasted plasma lipase activity (lipase activity; data not shown): not significantly different among groups
Increase of adipose lipase activity compared to OLETF control (lipase activity; white adipose tissue, tended, p=0.094): 22%
Translocated (membrane) GLUT4 ([2]; membrane fraction of skeletal muscle): no changes
AMPK expression ([2]; soleus): No changes were detected
Ratio of membrane to cytosolic GLUT4 ([2]; soleus): unchanged among the groups
Reduction of PI3K expression compared to OLETF ([2]; soleus): 47%
pAMPK expression ([2]; soleus): No changes were detected
pAMPK/AMPK expression ([2]; soleus): No changes were detected
pIR/IR ([2]; soleus): not changed
Phosphorylation of the insulin receptor (pIR) ([2]; soleus protein expression): No changes were detected
Reduction of Akt expression compared to OLETF ([2]; soleus, cytosolic, p<0.05): 32%
Reduction of pAkt expression compared to OLETF ([2]; soleus, cytosolic, p<0.05): 58%
Reduction of pAkt:Akt ratio compared to OLETF ([2]; soleus, p<0.01): 35%
Increase of native insulin receptor (IR) expression over OLETF ([2]; soleus, p<0.05): 54%
Cytosolic GLUT4 higher than OLETF ([2]; soleus, tended, p=0.06): 58%
Affinity for the endocannabinoid receptors responsible for cannabis intoxication [3]: little affinity
Liver collagen (Type IV) deposition (Collagen Type IV): no effect on collagen levels
Activity score relative to OLETF control ([4]; DSI HD-S10 telemeter, H4CBD n=3, OLETF n=2, p=0.0985, not significant): nearly doubled
Body mass (g) ([4]; H4CBD-treated OLETF rats, 200 mg/kg oral gavage, 4 weeks, mean ± SEM, n = 8): 516 ± 21^^# g
Final, absolute food intake ([4]; H4CBD-treated OLETF rats, 200 mg/kg oral, 4 weeks, average of 3 days, mean ± SEM): 36 ± 2 g
Relative total fat (g/100 g BM) ([4]; H4CBD-treated OLETF rats, 200 mg/kg oral, 4 weeks, epi.+retro., mean ± SEM): 7.8 ± 1.1 g/100 g BM
Relative epi. fat (g/100 g BM) ([4]; H4CBD-treated OLETF rats, 200 mg/kg oral, 4 weeks, epidydimal, mean ± SEM): 1.2 ± 0.1^^# g/100 g BM
Relative final food intake (g/100 g BM) ([4]; H4CBD-treated OLETF rats, 200 mg/kg oral, 4 weeks, mean ± SEM): 6.7 ± 0.4 g/100 g BM
Relative retro. fat (g/100 g BM) ([4]; H4CBD-treated OLETF rats, 200 mg/kg oral, 4 weeks, retroperitoneal, mean ± SEM): 6.6 ± 0.9 g/100 g BM
Initial, absolute food inake ([4]; H4CBD-treated OLETF rats, average of 3 days, mean ± SEM): 34 ± 2 g
Reduction of relative combined (total) adipose compared to OLETF ([4]; OLETF rats, 200 mg/kg oral, 4 weeks): 25%
Change in food consumption compared to OLETF ([4]; OLETF rats, 200 mg/kg oral, 4 weeks (Table 1)): not associated with a change in food consumption
Effect on body mass (BM) ([4]; OLETF rats, 200 mg/kg oral, 4 weeks, compared with vehicle LETO, 200 mg/kg): reduced BM in OLETF to LETO levels within the first week; also recorded: reduced BM to vehicle-treated LETO levels
Reduction of relative epidydimal fat compared to OLETF control [4, 6]: 35%
Reduction of relative retroperitoneal fat compared to OLETF control [4, 6]: 24%
BM of vehicle-treated OLETF higher than H4CBD-treated OLETF ([4]; OLETF rats, 200 mg/kg oral, after first week (day 10-30), p<0.05): 15%
Increased relative food consumption compared to OLETF control [4, 7]: 24%
Increased relative food intake consumption compared to LETO [4, 7]: 74%
Water intake higher than LETO [4, 8]: > 600%
Water intake higher than OLETF control [4, 8]: 90%
Mas1 mRNA expression (Mas1 mRNA): not rescued
Systolic blood pressure, treated vs non-treated OLETF ([5]; 4 weeks telemetry): No significant difference; also recorded: did not reduce SBP
Average increase of systolic blood pressure versus non-treated OLETF [5]: 4%
Average increase of systolic blood pressure versus non-treated OLETF ([5]; H4CBD n=3, OLETF n=2): 6.5 mmHg
